Laboratory results reported in US20230416653A1, “ANTIMICROBIAL CLEANING COMPOSITIONS CONTAINING POLYURETHANE SALTED WITH BIS-BIGUANIDE FREE BASE” (Lubrizol Advanced Materials, Inc., priority 2020, published 2023).

Tested on: Aspergillus brasiliensis
Assay: Antimicrobial activity on ceramic tiles, visual evaluation of fungal growth
Format: cell-based
Details: 10 = full fungal growth coverage, 0 = complete absence of fungal growth; tiles rinsed with 0.1 wt. % SLS; incubated 7 days at 25° C.
Protocol: A 2 wt. % aqueous dispersion of Polymer 1 salted with 2 wt. % chlorhexidine free base was assayed for antimicrobial activity on ceramic tiles. Control formulations containing Polymer 2 (no acid groups) 2 wt. % aqueous dispersion combined with 2 wt. % chlorhexidine gluconate, chlorhexidine (1 wt. % active material in sterilized deionized water) and benzalkonium chloride (1 wt. % active material in sterilized deionized water) were prepared for comparison. The tiles (Homebase Gloss Mini-Metro wall tiles measuring 7.5 cm×15 cm×0.6 cm thick) were sprayed with the dispersion of the salted Polymer 1 and the control formulations. The treated tiles were dried overnight in a biological control cabinet (Nuaire model no. NU 4005) at 20° C. and 45% RH. The dried tiles were removed from the biological control cabinet and each tile was rinsed with 400 ml of a sterile solution of 0.1 wt. % sodium laurel sulfate in deionized water. A spore suspension of Aspergillus brasiliensis cultured on malt extract agar was prepared in sterilized deionized water (concentration: 1×10^8 cfu/ml) and applied to each tile with a handheld spray bottle (nozzle set on spray position). The treated tiles were placed in the biological cabinet at 20° C. and 45% RH and dried for 30 mins. […] After incubating for 7 days the tiles were removed and visually evaluated for fugal growth.

Compound	Fungal Coverage Rating (average of 10 treated tiles)
N=C(NCCCCCCNC(=N)NC(=N)Nc1ccc(Cl)cc1)NC(=N)Nc1ccc(Cl)cc1 [Control (chlorhexidine), chlorhexidine]	5
benzalkonium chloride [Control (benzalkonium chloride)]	6
